Assay results as given in ChEMBL document CHEMBL1134378 (J Med Chem, 2001).

What was measured:
[1] = Inhibitory activity against type A neuraminidase (N9); design: species or system unidentified influenza virus
[2] = Inhibitory activity against type A neuraminidase (N2); design: species or system unidentified influenza virus

In the case of `C=C(C)NC(C(CC)CC)[C@@H]1[C@H](O)[C@@H](C(=O)O)C[C@H]1N=C(N)N` (some centres not stated), the “Log IC50” value [1] is reported as -10 and the “Log IC50” value [2] is reported as -10.
